Experimental data published in patent US11376246B2, “Inhibiting mutant IDH-1” (FORMA Therapeutics, Inc., priority 2018, dated 2022).

Assays:
[1] = Literature reported data; cited from earlier work
[2] = Dynamic vapor sorption (DVS); assay type: physicochemical; settings: 25° C./90% RH

SMILES	BBB+ [1]	maximum water uptake (DVS) [2] [% w/w]
N#Cc1ccnc(N2C(=O)CC[C@H]2C(=O)N(c2cncc(F)c2)[C@H](C(=O)NC2CC(F)(F)C2)c2ccccc2Cl)c1 [AG-120]	No	
Cc1cc([C@H](C)Nc2nccc(N3C(=O)OC[C@@H]3C(C)C)n2)ncc1-c1ccnc(C(F)(F)F)c1 [IDH305]	Yes	
C[C@H](Nc1ccc(C#N)n(C)c1=O)c1cc2cc(Cl)ccc2[nH]c1=O [Compound 1 Type A, (S)-5-((1-(6-chloro-2-oxo-1,2-dihydroquinolin-3-yl)ethyl)amino)-1-methyl-6-oxo-1,6-dihydropyridine-2-carbonitrile]		0.25
